Results reported in patent publication US20250215010A1, “DIAZABICYCLOOCTANE DERIVATIVES USEFUL AS MATRIX METALLOPROTEINASE INHIBITORS” (VASA THERAPEUTICS SPOLKA Z OGRANICZONA ODPOWIEDZIALNOSCIA, priority 2022, published 2025).
Read-outs that look alike come from different tables or passages of the source.

Tests used:
Type in all cases: biochemical
MMP1 = biological target: T1, MMP1 (Homo sapiens, UniProt P03956); test: MMP-1 colorimetric inhibition assay (Enzo kit BML-AK404); settings: thiopeptide substrate, absorbance 415 nm; read-out: MMP 1 IC50 class
T1 sequence (P03956 100-269 limits assumed): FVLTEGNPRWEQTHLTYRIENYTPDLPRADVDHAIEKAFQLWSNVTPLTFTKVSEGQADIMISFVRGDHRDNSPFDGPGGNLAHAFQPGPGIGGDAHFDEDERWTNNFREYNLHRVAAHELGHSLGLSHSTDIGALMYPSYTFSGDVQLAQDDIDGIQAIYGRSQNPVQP
Summary of the method: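 Colorimetric kit run per manufacturer protocol. MMP-1 cleaves a thiopeptide substrate (Ac-PLG-[2-mercapto-4-methylpentanoyl]-LG-OC2H5); released thiol reacts with DTNB, monitored at 415 nm. IC50 (nM) from inhibition curves of normalized values.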

MMP2 = biological target: T2, MMP2 (Homo sapiens, UniProt P08253); test: MMP-2 colorimetric inhibition assay (Enzo kit BML-AK408); settings: thiopeptide substrate, absorbance 415 nm; read-out: MMP 2 IC50 class
T2 sequence (P08253 110-660): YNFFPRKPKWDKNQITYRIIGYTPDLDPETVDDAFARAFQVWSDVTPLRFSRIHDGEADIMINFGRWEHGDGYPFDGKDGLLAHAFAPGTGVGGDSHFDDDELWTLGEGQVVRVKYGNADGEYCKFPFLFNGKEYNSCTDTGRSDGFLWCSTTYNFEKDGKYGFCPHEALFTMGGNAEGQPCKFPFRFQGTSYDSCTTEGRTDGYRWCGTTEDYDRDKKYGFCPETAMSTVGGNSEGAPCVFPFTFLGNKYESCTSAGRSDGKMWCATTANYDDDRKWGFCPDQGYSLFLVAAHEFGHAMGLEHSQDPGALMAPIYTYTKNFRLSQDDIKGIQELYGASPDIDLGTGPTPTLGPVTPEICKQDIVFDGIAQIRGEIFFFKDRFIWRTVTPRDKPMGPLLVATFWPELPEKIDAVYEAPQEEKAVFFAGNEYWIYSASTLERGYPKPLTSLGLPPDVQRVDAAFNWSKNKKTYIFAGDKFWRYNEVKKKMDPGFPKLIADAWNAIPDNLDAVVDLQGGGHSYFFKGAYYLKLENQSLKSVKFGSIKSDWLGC
Summary of the method: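 Cleavage of the thiopeptide Ac-PLG-[2-mercapto-4-methylpentanoyl]-LG-OC2H5 releases a sulfhydryl that reacts with DTNB, read at 415 nm per the kit protocol. IC50 values (nM) come from inhibition curves of normalized data.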

MMP9 = MMP9 (Homo sapiens, UniProt P14780); test: MMP-9 colorimetric inhibition assay (Enzo kit BML-AK410); settings: thiopeptide substrate, absorbance 415 nm; read-out: MMP 9 IC50 class
Sequence of MMP9 (P14780 94-707): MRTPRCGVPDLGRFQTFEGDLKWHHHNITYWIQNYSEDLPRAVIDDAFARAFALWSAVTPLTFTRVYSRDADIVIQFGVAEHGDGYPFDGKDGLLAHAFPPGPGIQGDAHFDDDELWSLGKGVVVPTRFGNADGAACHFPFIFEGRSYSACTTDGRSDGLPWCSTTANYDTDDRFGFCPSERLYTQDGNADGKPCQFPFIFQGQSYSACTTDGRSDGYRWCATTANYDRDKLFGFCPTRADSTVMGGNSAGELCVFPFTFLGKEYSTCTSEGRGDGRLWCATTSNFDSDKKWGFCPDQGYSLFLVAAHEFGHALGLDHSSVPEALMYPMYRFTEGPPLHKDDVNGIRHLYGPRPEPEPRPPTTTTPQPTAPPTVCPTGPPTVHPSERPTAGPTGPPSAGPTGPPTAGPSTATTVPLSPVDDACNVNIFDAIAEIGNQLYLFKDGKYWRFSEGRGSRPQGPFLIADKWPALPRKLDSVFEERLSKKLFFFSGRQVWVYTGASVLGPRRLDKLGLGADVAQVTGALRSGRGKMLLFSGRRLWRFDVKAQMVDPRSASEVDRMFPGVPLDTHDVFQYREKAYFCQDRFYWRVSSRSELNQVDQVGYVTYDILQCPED
Summary of the method: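 Colorimetric thioester-substrate assay: hydrolysis of Ac-PLG-[2-mercapto-4-methylpentanoyl]-LG-OC2H5 frees a thiol that reacts with DTNB, read at 415 nm. Run per kit protocol. IC50 (nM) taken from inhibition curves of normalized values.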

MMP13 = biological target: T3, MMP13 (Homo sapiens, UniProt P45452); test: MMP-13 colorimetric inhibition assay (Enzo kit BML-AK412); settings: thiopeptide substrate, absorbance 415 nm; read-out: MMP 13 IC50 class
T3 construct: purchased Enzo Life Sciences, Inc. BML-AK412
Summary of the method: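 Thiopeptide chromogenic substrate (Ac-PLG-[2-mercapto-4-methylpentanoyl]-LG-OC2H5); MMP-13 hydrolysis of the thioester yields a thiol that reacts with DTNB, read at 415 nm. IC50 values (nM) derived from inhibition curves of normalized data.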

ADAM17 (TACE) = ADAM17 (TACE) (Homo sapiens, UniProt P78536); test: TACE fluorometric inhibition assay (Enzo kit BML-AK310); settings: quenched fluorogenic peptide, ex/em 320/420 nm; read-out: TACE IC50 class
Sequence of ADAM17 (TACE) (P78536 215-477 limits assumed): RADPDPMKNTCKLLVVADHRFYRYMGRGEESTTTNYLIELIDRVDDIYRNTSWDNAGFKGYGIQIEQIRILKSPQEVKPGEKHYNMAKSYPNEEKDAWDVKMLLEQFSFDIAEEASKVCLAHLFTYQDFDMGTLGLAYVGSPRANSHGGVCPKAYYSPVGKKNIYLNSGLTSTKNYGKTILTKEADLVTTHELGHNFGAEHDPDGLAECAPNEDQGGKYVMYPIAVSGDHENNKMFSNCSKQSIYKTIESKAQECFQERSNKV
Summary of the method: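 Kit-based TACE assay run per manufacturer's protocol, using quenched fluorogenic peptide Mca-PLAQAV-Dpa-RSSSR-NH2 whose cleavage raises Mca fluorescence. Signal read at ex/em 320/420 nm; IC50 (nM) derived from inhibition curves of normalized values.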

ADAM10 = biological target: T4, ADAM10 (Homo sapiens, UniProt O14672); test: SensoLyte 520 ADAM10 fluorometric activity assay (AnaSpec AS-72226)
T4 construct: purchased AnaSpec, Inc. AS-72226
T4 sequence (O14672 214-748): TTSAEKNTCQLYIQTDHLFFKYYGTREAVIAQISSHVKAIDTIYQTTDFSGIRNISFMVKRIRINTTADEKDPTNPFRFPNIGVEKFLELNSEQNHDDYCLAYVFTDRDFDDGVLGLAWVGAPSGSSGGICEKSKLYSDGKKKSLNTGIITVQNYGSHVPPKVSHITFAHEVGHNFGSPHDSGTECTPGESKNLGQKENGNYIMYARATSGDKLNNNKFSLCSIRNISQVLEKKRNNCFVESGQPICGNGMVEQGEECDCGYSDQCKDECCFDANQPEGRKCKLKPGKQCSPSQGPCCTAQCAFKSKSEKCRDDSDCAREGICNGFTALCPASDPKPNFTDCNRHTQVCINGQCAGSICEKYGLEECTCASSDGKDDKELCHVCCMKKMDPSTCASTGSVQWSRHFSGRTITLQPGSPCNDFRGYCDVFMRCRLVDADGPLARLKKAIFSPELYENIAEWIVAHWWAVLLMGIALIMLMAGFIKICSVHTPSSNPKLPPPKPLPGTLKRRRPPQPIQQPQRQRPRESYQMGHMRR
Experimental: The inhibitory activities of the compounds of the invention were assessed in 96-well microplate format using MMP1, MMP2, MMP9 and MMP13 colorimetric assay kits and TACE fluorometric assay kit from Enzo Life Sciences, Inc. The inhibitory effect of the compounds of the invention on ADAM10 activity were evaluated in 96-well microplate format using fluorometric assay from AnaSpec, Inc.
SensoLyte® 520 ADAM10 Activity Assay Kit (catalog #AS-72226) is a complete assay system designed to screen ADAM10 inhibitors using FRET-based peptide substrate containing the 5-FAM/QXL™ 520 fluorophore/quencher pair. The fluorescence of 5-FAM is quenched by QXL™ 520 and recovered upon cleavage of the peptide by active ADAM10.
The inhibitory activity of the compounds of the invention against ADAM10 was tested according to the manufacturer's assay protocol and the fluorescence was monitored at excitation/emission wavelengths=495 nm/520 nm using Tecan Infinite® 200 Pro F Nano^+ microplate reader.
The normalized values were analyzed using GraphPadPrism 9 for Windows (GraphPad Software, San Diego, CA, USA) software by plotting inhibition curves and determining the IC50 values (in nM).

[1] = FRET peptide substrate, ex/em 495/520 nm, read-out: ADAM 10 IC50 class

SMILES | IC50 (MMP1) | IC50 (MMP2) | IC50 (MMP9) | IC50 (MMP13) | IC50 (ADAM17 (TACE)) | IC50 (ADAM10) | IC50 (ADAM10; [1])
COCCOC(=O)N1[C@@H]2CC[C@H]1[C@H](C(=O)NO)N(S(=O)(=O)c1ccc(Oc3ccc(F)cc3)c(F)c1)C2 [Example 5, 2-methoxyethyl (1S,2R,5R)-3-((3-fluoro-4-(4-fluoro-phenoxy)phenyl)-sulfonyl)-2-(hydroxycarbamoyl)-3,8-diazabicyclo[3.2.1]-octane-8-carboxylate] | 50 to 1000 nM | < 50 nM | < 50 nM | < 50 nM | 50 to 1000 nM | 0.05 to 1 µM | 
COCCOC(=O)N1[C@@H]2CC[C@H]1[C@H](C(=O)NO)N(S(=O)(=O)c1ccc(Oc3ccc(F)cc3F)nc1)C2 [Example 21, 2-methoxyethyl (1S,2R,5R)-3-((6-(2,4-difluoro-phenoxy)pyridin-3-yl)sulfonyl)-2-(hydroxycarbamoyl)-3,8-diazabicyclo-[3.2.1]octane-8-carboxylate] | 50 to 1000 nM | < 50 nM | < 50 nM | < 50 nM | 50 to 1000 nM |  | > 10 µM
COCCOC(=O)N1[C@@H]2CC[C@H]1[C@H](C(=O)NO)N(S(=O)(=O)c1ccc(Oc3cnn(C)c3)nc1)C2 [Example 36, 2-methoxyethyl (1S,2R,5R)-2-(hydroxycarbamoyl)-3-((6-((1-methyl-1H-pyrazol-4-yl)oxy)-pyridin-3-yl)-sulfonyl)-3,8-diazabicyclo[3.2.1]-octane-8-carboxylate] | < 50 nM | < 50 nM | < 50 nM | < 50 nM | 50 to 1000 nM |  | 1 to 10 µM
CCC(=O)N1[C@@H]2CC[C@H]1[C@H](C(=O)NO)N(S(=O)(=O)c1ccc(Oc3ccc(OC(C)C)cc3)nc1)C2 [Example 59, (1S,2R,5R)-N-hydroxy-3-((6-(4-isopropoxyphenoxy)pyridin-3-yl)-sulfonyl)-8-propionyl-3,8-diaza-bicyclo[3.2.1]octane-2-carboxamide] | 1000 to 10000 nM | < 50 nM | < 50 nM | < 50 nM | > 10000 nM |  | > 10 µM
COCCOC(=O)N1[C@@H]2CC[C@H]1[C@H](C(=O)NO)N(S(=O)(=O)c1ccc(Oc3cnn(C)c3)c(F)c1)C2 [Example 41, 2-methoxyethyl (1S,2R,5R)-3-((3-fluoro-4-((1-methyl-1H-pyrazol-4-yl)oxy)phenyl)sulfonyl)-2-(hydroxycarbamoyl)-3,8-diazabicyclo[3.2.1]octane-8-carboxylate] | < 50 nM | < 50 nM | < 50 nM | < 50 nM | 50 to 1000 nM |  | 0.05 to 1 µM
COCCOC(=O)N1[C@@H]2CC[C@H]1[C@H](C(=O)NO)N(S(=O)(=O)c1ccc(Oc3ccc(OC)c(F)c3)nc1)C2 [Example 34, 2-methoxyethyl (1S,2R,5R)-3-((6-(3-fluoro-4-methoxy-phenoxy)pyridin-3-yl)sulfonyl)-2-(hydroxycarbamoyl)-3,8-diaza-bicyclo[3.2.1]octane-8-carboxylate] | 1000 to 10000 nM | < 50 nM | < 50 nM | < 50 nM | 1000 to 10000 nM |  | 1 to 10 µM
COCCOC(=O)N1[C@@H]2CC[C@H]1[C@H](C(=O)NO)N(S(=O)(=O)c1ccc(Oc3ccc(Cl)c(F)c3)nc1)C2 [Example 9, 2-methoxyethyl (1S,2R,5R)-3-((6-(4-chloro-3-fluoro-phenoxy)pyridin-3-yl)sulfonyl)-2-(hydroxycarbamoyl)-3,8-diaza-bicyclo[3.2.1]octane-8-carboxylate] | 50 to 1000 nM | < 50 nM | < 50 nM | < 50 nM | 50 to 1000 nM |  | 1 to 10 µM
CCC(=O)N1[C@@H]2CC[C@H]1[C@H](C(=O)NO)N(S(=O)(=O)c1ccc(Oc3ccc(OC(F)(F)F)cc3)nc1)C2 [Example 55, (1S,2R,5R)-N-hydroxy-8-propionyl-3-((6-(4-(trifluoromethoxy)-phenoxy)pyridin-3-yl)sulfonyl)-3,8-diazabicyclo[3.2.1]-octane-2-carboxamide] | 1000 to 10000 nM | < 50 nM | < 50 nM | < 50 nM | 1000 to 10000 nM |  | > 10 µM
CC(=O)N1[C@@H]2CC[C@H]1[C@H](C(=O)NO)N(S(=O)(=O)c1ccc(Oc3ccc(F)cc3)nc1)C2 [Example 53, (1S,2R,5R)-8-acetyl-3-((6-(4-fluorophenoxy)pyridin-3-yl)sulfonyl)-N-hydroxy-3,8-diazabicyclo[3.2.1]octane-2-carboxamide] | 50 to 1000 nM | < 50 nM | < 50 nM | < 50 nM | 1000 to 10000 nM |  | > 10 µM
COc1ccc(Oc2ccc(S(=O)(=O)N3C[C@H]4CC[C@@H]([C@@H]3C(=O)NO)N4C(=O)N3CCOCC3)cn2)cc1F [Example 73, (1S,2R,5R)-3-((6-(3-fluoro-4-methoxy-phenoxy)pyridin-3-yl)-sulfonyl)-N-hydroxy-8-(morpholine-4-carbonyl)-3,8-diazabicyclo[3.2.1]-octane-2-carboxamide] | > 10000 nM | < 50 nM | < 50 nM | < 50 nM | 1000 to 10000 nM |  | 1 to 10 µM
COCCOC(=O)N1[C@@H]2CC[C@H]1[C@H](C(=O)NO)N(S(=O)(=O)c1ccc(Oc3ccc(F)cc3)nc1)C2 [Example 1, (1S,2R,5R)-2-methoxyethyl 3-((6-(4-fluorophenoxy)pyridin-3-yl)sulfonyl)-2-(hydroxycarbamoyl)-3,8-diazabicyclo[3.2.1]octane-8-carboxylate] | 50 to 1000 nM | < 50 nM | < 50 nM | < 50 nM | 1000 to 10000 nM |  | 1 to 10 µM
